# Several values for one entry are separate records, joined by “and”; a condition that tells them apart may be missing. Equal values may be shown once. Read-outs that look alike come from different tables or passages of the source.
# Legend:
# [1] = biological target: T1, human full-length PDE2A3 enzyme (Homo sapiens (Human), UniProt O00408); details: literature values; IC50 values obtained were within 3× of these; read-out: PDE2 IC50, literature values of control compounds; cited from earlier work
# CYP3A4 = CYP3A4 (Homo sapiens (Human), UniProt P08684); experiment: biochemical
# CYP3A5 = CYP3A5 (Homo sapiens (Human), UniProt P20815); experiment: biochemical
# [2] = biological target: T1, human full-length PDE2A3 enzyme; experiment: Recombinant human PDE2A3 inhibition by [3H]-cGMP scintillation proximity assay (SPA); format: biochemical
# CYP3A4 versus CYP3A5 = CYP3A4 versus CYP3A5 (Homo sapiens (Human), UniProt P08684); experiment: in vitro
# [3] = Geometric mean of 2-5 determinations unless otherwise indicated (a: single determination; b: 7-8 determinations)
# Sequence of CYP3A4 (P08684 whole entry): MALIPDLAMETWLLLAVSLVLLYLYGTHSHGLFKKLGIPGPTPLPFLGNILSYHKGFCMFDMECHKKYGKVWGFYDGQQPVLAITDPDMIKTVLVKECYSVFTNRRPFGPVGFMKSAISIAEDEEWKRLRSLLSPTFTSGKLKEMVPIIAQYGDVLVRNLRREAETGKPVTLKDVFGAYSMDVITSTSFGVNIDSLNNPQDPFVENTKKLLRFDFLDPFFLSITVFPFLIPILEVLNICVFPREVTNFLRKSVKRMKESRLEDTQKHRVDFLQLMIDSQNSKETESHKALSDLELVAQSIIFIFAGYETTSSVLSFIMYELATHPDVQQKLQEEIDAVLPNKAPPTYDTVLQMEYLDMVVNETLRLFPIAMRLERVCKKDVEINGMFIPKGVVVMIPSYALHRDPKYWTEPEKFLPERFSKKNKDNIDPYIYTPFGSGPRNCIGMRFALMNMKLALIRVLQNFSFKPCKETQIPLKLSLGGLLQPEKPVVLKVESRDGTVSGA
# Sequence of CYP3A5 (P20815 whole entry): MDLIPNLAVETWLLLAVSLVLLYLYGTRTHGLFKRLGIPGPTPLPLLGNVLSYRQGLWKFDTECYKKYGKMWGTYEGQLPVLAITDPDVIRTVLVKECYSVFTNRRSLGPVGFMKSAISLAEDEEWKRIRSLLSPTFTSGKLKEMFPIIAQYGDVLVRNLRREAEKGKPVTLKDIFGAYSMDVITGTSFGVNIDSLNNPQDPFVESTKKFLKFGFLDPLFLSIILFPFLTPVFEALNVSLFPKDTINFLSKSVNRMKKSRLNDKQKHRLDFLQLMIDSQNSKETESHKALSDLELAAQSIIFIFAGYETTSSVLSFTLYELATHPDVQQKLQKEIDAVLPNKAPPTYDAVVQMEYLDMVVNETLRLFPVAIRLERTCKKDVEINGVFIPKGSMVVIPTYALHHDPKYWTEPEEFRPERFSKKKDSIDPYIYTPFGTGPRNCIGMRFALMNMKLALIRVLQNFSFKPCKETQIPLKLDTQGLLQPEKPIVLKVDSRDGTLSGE
# T1 sequence (O00408 whole entry): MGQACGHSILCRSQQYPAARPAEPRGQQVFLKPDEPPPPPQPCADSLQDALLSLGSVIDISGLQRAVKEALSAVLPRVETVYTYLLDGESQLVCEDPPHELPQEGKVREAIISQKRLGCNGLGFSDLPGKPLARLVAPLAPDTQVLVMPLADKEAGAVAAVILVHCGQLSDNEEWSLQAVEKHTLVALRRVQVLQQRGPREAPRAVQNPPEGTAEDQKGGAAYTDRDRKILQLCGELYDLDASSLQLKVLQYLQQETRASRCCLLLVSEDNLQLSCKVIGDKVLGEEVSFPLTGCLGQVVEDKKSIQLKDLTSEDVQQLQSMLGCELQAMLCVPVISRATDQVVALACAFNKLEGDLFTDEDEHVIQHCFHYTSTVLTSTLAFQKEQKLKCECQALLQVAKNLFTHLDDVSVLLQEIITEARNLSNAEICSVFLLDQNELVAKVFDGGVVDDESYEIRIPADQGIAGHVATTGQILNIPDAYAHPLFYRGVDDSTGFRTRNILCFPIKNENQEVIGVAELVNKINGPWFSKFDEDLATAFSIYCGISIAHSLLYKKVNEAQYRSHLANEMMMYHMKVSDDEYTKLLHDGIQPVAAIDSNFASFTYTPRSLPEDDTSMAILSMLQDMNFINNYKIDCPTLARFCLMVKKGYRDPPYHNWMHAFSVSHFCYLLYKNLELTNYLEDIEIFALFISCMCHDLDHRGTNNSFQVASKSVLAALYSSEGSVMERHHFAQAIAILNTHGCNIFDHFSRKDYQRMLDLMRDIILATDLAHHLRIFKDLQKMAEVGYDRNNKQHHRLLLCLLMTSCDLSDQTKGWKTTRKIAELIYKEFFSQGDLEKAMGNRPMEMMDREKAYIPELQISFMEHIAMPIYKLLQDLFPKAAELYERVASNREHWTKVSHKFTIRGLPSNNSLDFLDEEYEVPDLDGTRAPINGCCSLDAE
# Sequence of CYP3A4 versus CYP3A5 (P08684 whole entry): as the sequence (P08684 whole entry) above
Molecule,IC50 (CYP3A4),IC50 (CYP3A5),"IC50 [2, 3]",other results
"CCCCCC[C@@H]([C@@H](C)O)n1cnc2c(N)ncnc21 (racemic) [EHNA, erythro-9-(2-hydroxy-3-nonyl) adenine]",,,,IC50 [1]: 1700 nM
"COC(=O)NC1CN(c2ncnc3c2c(-c2cnn(C)c2-c2ccc(C4CC4)cc2)nn3C)C1 [Example 23, methyl (1-{3-[5-(4-cyclopropylphenyl)-1-methyl-1H-pyrazol-4-yl]-1-methyl-1H-pyrazolo[3,4-d]pyrimidin-4-yl}azetidin-3-yl)carbamate]",,,< 2.11 nM,
"Cn1ncc(-c2nn(C)c3ncnc(N4CC(F)C4)c23)c1-c1ccc(C2CC2)cc1 [Example 3, 3-[5-(4-Cyclopropylphenyl)-1-methyl-1H-pyrazol-4-yl]-4-(3-fluoroazetidin-1-yl)-1-methyl-1H-pyrazolo[3,4-d]pyrimidine]",,,< 1.31 nM,
"3-[5-(4-chloro-3- fluorophenyl)-1- methyl-1H-pyrazol- 4-yl]-1-methyl-4-[3- (1-methyl-1H- pyrazol-3- yl)azetidin-1-yl]-1H- pyrazolo[3,4- d]pyrimidine [Example 19]",,,,IC50 [2]: < 2.87 nM

# Further lines, with some results ahead:
IC50 (CYP3A4),IC50 (CYP3A5),"IC50 [2, 3]",Molecule,other results
65.3 nM and 122 nM,9690 nM,,"Cc1ccc(-c2c(-c3nn(C)c4ncnc(N5CC[C@H](N6CCCCC6)C5)c34)cnn2C)cc1 [Example 2, 1-Methyl-3-[1-methyl-5-(4-methylphenyl)-1H-pyrazol-4-yl]-4-[(3S)-3-(piperidin-1-yl)pyrrolidin-1-yl]-1H-pyrazolo[3,4-d]pyrimidine]",
39.7 nM and 71.1 nM,3470 nM and 6960 nM,,"CCc1ccc(-c2c(-c3nn(C)c4ncnc(N5CC[C@H](N6CCCCC6)C5)c34)cnn2C)cc1 [Example 56, 3-[5-(4-ethylphenyl)-1-methyl-1H-pyrazol-4-yl]-1-methyl-4-[(3S)-3-(piperidin-1-yl)pyrrolidin-1-yl]-1H-pyrazolo[3,4-d]pyrimidine]","inhibition at 0.316 µM ([2]; at 316 nM, single determination): 41%; selectivity ratio (CYP3A4 versus CYP3A5; probe midazolam): 87; selectivity ratio (CYP3A4 versus CYP3A5; probe testosterone): 98"

# Source: patent US8829010B2, “Pyrazolo[3,4-d]pyrimidine compounds and their use as PDE2 inhibitors and/or CYP3A4 inhibitors” (Pfizer Inc., priority 2011, dated 2014)
